Data as given in paper PMC11742723, “The clinical-stage drug BTZ-043 accumulates in murine tuberculosis lesions and efficiently acts against Mycobacterium tuberculosis” (Nature Communications, 2025).
Where “and” joins values, the source holds several entries; their conditions need not be identical. Equal entries are not always repeated.

What was measured:
Caco-2 = details: cited from earlier work
[1] = cited from earlier work
Mtb H37Rv [2] = assay: BTZ-043 dose-fractionation study in Mtb-infected BALB/c mice (lung CFU); assay type: in vivo, Mycobacterium tuberculosis; details: 10 mg /kg INH; 6 weeks of treatment; individual female mice
Mtb H37Rv [3] = assay: BTZ-043 dose escalation study in Mtb-infected BALB/c mice (pulmonary CFU); assay type: in vivo, Mycobacterium tuberculosis; details: 25 mg/kg INH, individual female mice
Caco-2 cell monolayers = assay: In vitro permeability assay in Caco-2 monolayers; details: for Concentration: replicates 1-3
[4] = In vitro permeability assay in Caco-2 monolayers; details: human; for Papp at 120 min, 25 µg/mL / Papp at 120 min, 40 µg/mL: Caco-2, Mean Papp, n=3; for Papp at 120 min, 25 µg/mL: Caco-2, 25 µg/mL; for Papp at 120 min, 40 µg/mL: Caco-2, 40 µg/mL

CC(C)/N=c1\cc2n(-c3ccc(Cl)cc3)c3ccccc3nc-2cc1Nc1ccc(Cl)cc1 [clofazimine]
Papp (AB) (Caco-2): 0.17 10^−6 cm/s
Papp (BA) (Caco-2): 0.18 10^−6 cm/s
penetration into centrally necrotizing granulomas [1]: only very limited penetration

CO[C@H]1/C=C/O[C@@]2(C)Oc3c(C)c(O)c4c(O)c(c(/C=N/N5CCN(C)CC5)c(O)c4c3C2=O)NC(=O)/C(C)=C\C=C\[C@H](C)[C@H](O)[C@@H](C)[C@@H](O)[C@@H](C)[C@H](OC(C)=O)[C@@H]1C [RIF, rifampicin]
penetration into the cellular rim and necrotic center [1]: at least some penetration

CC(C)=CCC/C(C)=C/CNCCNC1C2CC3CC(C2)CC1C3 (stereo not shown) [SQ109]
distribution in centrally necrotizing lesions by MALDI imaging ([1]; in vivo): strong signals in the cellular rim of centrally necrotizing lesions but only poor diffusion into the avascular caseum

NNC(=O)c1ccncc1 [INH, isoniazid, reference compound]
pulmonary CFU counts / mouse (Mtb H37Rv [2]): 251 CFU counts / mouse (2×) and 876 CFU counts / mouse and 1751 CFU counts / mouse
pulmonary CFU counts / mouse (Mtb H37Rv [3]; 4 weeks of treatment): 306600 CFU counts / mouse and 698438 CFU counts / mouse and 504563 CFU counts / mouse and 274286 CFU counts / mouse and 298200 CFU counts / mouse and 595125 CFU counts / mouse
pulmonary CFU counts / mouse (Mtb H37Rv [3]; 6 weeks of treatment): 135000 CFU counts / mouse and 142313 CFU counts / mouse and 207692 CFU counts / mouse and 103500 CFU counts / mouse and 144000 CFU counts / mouse and 145313 CFU counts / mouse
pulmonary CFU counts / mouse (Mtb H37Rv [3]; 8 weeks of treatment): 40714 CFU counts / mouse and 48086 CFU counts / mouse and 100000 CFU counts / mouse and 45000 CFU counts / mouse and 32560 CFU counts / mouse and 144000 CFU counts / mouse

NC(=O)c1cnccn1 [PZA, pyrazinamide]
permeability classification (Caco-2 cell monolayers; Caco-2): highly permeable drug
Concentration (Caco-2 cell monolayers; PZA 25 μg mL^-1, direction AB, time 0 min): 0 ng/mL
Concentration (Caco-2 cell monolayers; PZA 25 μg mL^-1, direction AB, time 10 min): 0 ng/mL and 525.202 ng/mL
Concentration (Caco-2 cell monolayers; PZA 25 μg mL^-1, direction AB, time 30 min): 1333.17 ng/mL and 1096.85 ng/mL and 1005.65 ng/mL
Concentration (Caco-2 cell monolayers; PZA 25 μg mL^-1, direction AB, time 60 min): 3321.25 ng/mL and 3452.37 ng/mL and 3341.43 ng/mL
Concentration (Caco-2 cell monolayers; PZA 25 μg mL^-1, direction AB, time 90 min): 3158.86 ng/mL and 3253.04 ng/mL and 3097.63 ng/mL
Concentration (Caco-2 cell monolayers; PZA 25 μg mL^-1, direction AB, time 120 min): 4030.2 ng/mL and 4138.52 ng/mL and 3490.73 ng/mL
Concentration (Caco-2 cell monolayers; PZA 25 μg mL^-1, direction BA, time 0 min): 0 ng/mL
Concentration (Caco-2 cell monolayers; PZA 25 μg mL^-1, direction BA, time 10 min): 1503.99 ng/mL and 1317.17 ng/mL and 1941.63 ng/mL
Concentration (Caco-2 cell monolayers; PZA 25 μg mL^-1, direction BA, time 30 min): 5734.38 ng/mL and 4427.73 ng/mL and 5446.92 ng/mL
Concentration (Caco-2 cell monolayers; PZA 25 μg mL^-1, direction BA, time 60 min): 9786.14 ng/mL and 7994.45 ng/mL and 7975.63 ng/mL
Concentration (Caco-2 cell monolayers; PZA 25 μg mL^-1, direction BA, time 90 min): 11259.4 ng/mL and 8631.13 ng/mL and 9901.08 ng/mL
Concentration (Caco-2 cell monolayers; PZA 25 μg mL^-1, direction BA, time 120 min): 13405.8 ng/mL and 11006.7 ng/mL and 13558.7 ng/mL
Concentration (Caco-2 cell monolayers; PZA 40 μg mL^-1, direction AB, time 0 min): 0 ng/mL
Concentration (Caco-2 cell monolayers; PZA 40 μg mL^-1, direction AB, time 10 min): 1048.64 ng/mL and 287.742 ng/mL and 2327.22 ng/mL
Concentration (Caco-2 cell monolayers; PZA 40 μg mL^-1, direction AB, time 30 min): 1430.93 ng/mL and 3432 ng/mL and 3592.69 ng/mL
Concentration (Caco-2 cell monolayers; PZA 40 μg mL^-1, direction AB, time 60 min): 4853.22 ng/mL and 4349.7 ng/mL and 4275.28 ng/mL
Concentration (Caco-2 cell monolayers; PZA 40 μg mL^-1, direction AB, time 90 min): 5770.39 ng/mL and 5601.9 ng/mL and 5436.88 ng/mL
Concentration (Caco-2 cell monolayers; PZA 40 μg mL^-1, direction AB, time 120 min): 4977.56 ng/mL and 4113.08 ng/mL and 4440.77 ng/mL
Concentration (Caco-2 cell monolayers; PZA 40 μg mL^-1, direction BA, time 0 min): 4045.86 ng/mL and 115.41 ng/mL and 340.993 ng/mL
Concentration (Caco-2 cell monolayers; PZA 40 μg mL^-1, direction BA, time 10 min): 3969.46 ng/mL and 1843.77 ng/mL and 2669.48 ng/mL
Concentration (Caco-2 cell monolayers; PZA 40 μg mL^-1, direction BA, time 30 min): 5459.68 ng/mL and 4472.97 ng/mL and 5086.94 ng/mL
Concentration (Caco-2 cell monolayers; PZA 40 μg mL^-1, direction BA, time 60 min): 9734.39 ng/mL and 8339.56 ng/mL and 9591.97 ng/mL
Concentration (Caco-2 cell monolayers; PZA 40 μg mL^-1, direction BA, time 90 min): 11611.6 ng/mL and 10257.1 ng/mL and 12377.9 ng/mL
Concentration (Caco-2 cell monolayers; PZA 40 μg mL^-1, direction BA, time 120 min): 12904.2 ng/mL and 13264.5 ng/mL and 15050 ng/mL
Calculated Amount (Caco-2 cell monolayers; PZA (25 µg mL^-1), direction AB, compartment api, time 0 min): 20066.1 and 22292.2 and 24678
Calculated Amount (Caco-2 cell monolayers; PZA (25 µg mL^-1), direction AB, compartment api, time 120 min): 10717.9 and 11820.9 and 10695.5
Calculated Amount (Caco-2 cell monolayers; PZA (25 µg mL^-1), direction AB, compartment baso, time 0 min): 0
Calculated Amount (Caco-2 cell monolayers; PZA (25 µg mL^-1), direction AB, compartment baso, time 30 min): 1096.85 and 1005.65
Calculated Amount (Caco-2 cell monolayers; PZA (25 µg mL^-1), direction AB, compartment baso, time 60 min): 3321.25 and 3452.37 and 3341.43
Calculated Amount (Caco-2 cell monolayers; PZA (25 µg mL^-1), direction AB, compartment baso, time 90 min): 3158.86 and 3253.04 and 3097.63
Calculated Amount (Caco-2 cell monolayers; PZA (25 µg mL^-1), direction AB, compartment baso, time 120 min): 4030.2 and 4138.52 and 3490.73
Calculated Amount (Caco-2 cell monolayers; PZA (25 µg mL^-1), direction BA, compartment api, time 0 min): 0
Calculated Amount (Caco-2 cell monolayers; PZA (25 µg mL^-1), direction BA, compartment api, time 10 min): 1503.99 and 1317.17 and 1941.63
Calculated Amount (Caco-2 cell monolayers; PZA (25 µg mL^-1), direction BA, compartment api, time 30 min): 5734.38 and 4427.73 and 5446.92
Calculated Amount (Caco-2 cell monolayers; PZA (25 µg mL^-1), direction BA, compartment api, time 60 min): 9786.14 and 7994.45 and 7975.63
Calculated Amount (Caco-2 cell monolayers; PZA (25 µg mL^-1), direction BA, compartment api, time 90 min): 11259.4 and 8631.13 and 9901.08
Calculated Amount (Caco-2 cell monolayers; PZA (25 µg mL^-1), direction BA, compartment api, time 120 min): 13405.8 and 11006.7 and 13558.7
Calculated Amount (Caco-2 cell monolayers; PZA (25 µg mL^-1), direction BA, compartment baso, time 120 min): 22133.4
Calculated Amount (Caco-2 cell monolayers; PZA (40 µg mL^-1), direction AB, compartment api, time 120 min): 15162.6 and 15570.7 and 14836.3
Calculated Amount (Caco-2 cell monolayers; PZA (40 µg mL^-1), direction BA, compartment baso, time 120 min): 27713.4 and 29783.3 and 27759.2
Papp A→B at 120 min ([4]; Caco-2): 49.7 to 61 ×10⁻⁶ cm/s
Papp B→A at 120 min ([4]; Caco-2): 35 to 39.2 ×10⁻⁶ cm/s
efflux ratio at 120 min, 25 µg/mL ([4]; Caco-2): 0.79
efflux ratio at 120 min, 40 µg/mL ([4]; Caco-2): 0.57
Papp at 120 min, 25 µg/mL ([4]; direction AB): 49.7 ×10⁻⁶ cm/s
Papp at 120 min, 25 µg/mL ([4]; direction BA): 39.2 ×10⁻⁶ cm/s
Papp at 120 min, 40 µg/mL ([4]; direction AB): 61 ×10⁻⁶ cm/s
Papp at 120 min, 40 µg/mL ([4]; direction BA): 35 ×10⁻⁶ cm/s
Papp (AB) (Caco-2): 70.4 10^−6 cm/s
Papp (BA) (Caco-2): 37.1 10^−6 cm/s
penetration into centrally necrotizing granulomas [1]: readily penetrates centrally necrotizing granulomas
